# Results reported in patent US9539218B2, “Prevention and treatment of thromboembolic disorders” (BAYER INTELLECTUAL PROPERTY GMBH, priority 2005, dated 2017).
# Like-named read-outs stand apart in the source and are kept apart here.
# What was measured:
# [1] = at steady state in humans, healthy male subjects, multiple dose escalation; cited from earlier work
# [2] = system: patients undergoing elective primary total hip replacement; settings: for Primary efficacy, composite endpoint (DVT, PE, death) incidence rate / Primary efficacy, composite endpoint, n of patients with event: 7-9 days
# Protocol: This was a dose guiding study for the direct factor Xa inhibitor (I). Objective of the study was the assessment of safety, tolerability, and efficacy of (I) at different oral doses (bid and od) compared with subcutaneously administered enoxaparin 40 mg in the prevention of venous thromboembolism.
# 642 patients were enrolled in this study and the treatment duration was 7 to 9 days.
# The main inclusion criteria for the study were: men ≧18 years of age and postmenopausal women undergoing elective primary total hip replacement.
# This was a prospective, randomized, open-label, active comparator controlled, multi-center and multi-national trial designed as a proof-of-principle dose-escalating study in patients undergoing elective primary total hip replacement.
# (I) was administered orally as rapid release tablets.
# The criteria for evaluation were: • a) The primary efficacy endpoint was a composite endpoint of • Any deep vein thrombosis (DVT) (proximal and/or distal). • Non-fatal pulmonary embolism (PE). • Death from all causes. • The primary endpoint was evaluated 5-9 days after surgery.
# [3] = (I) 2.5 mg bid oral, PP population N = 63
# [4] = (I) 5 mg bid oral, PP population N = 63
# [5] = (I) 10 mg bid oral, PP population N = 55
# [6] = (I) 20 mg bid oral, PP population N = 59
# [7] = (I) 30 mg bid oral, PP population N = 46
# [8] = (I) 30 mg od oral, PP population N = 73
compound,measurement,setting,value
"O=C(NC[C@H]1CN(c2ccc(N3CCOCC3=O)cc2)C(=O)O1)c1ccc(Cl)s1 [(I), 5-Chloro-N-({(5S)-2-oxo-3-[4-(3-oxo-4-morpholinyl)-phenyl]-1,3-oxazolidin-5-yl}-methyl)-2-thiophenecarboxamide]",plasma concentration half life,[1],4 to 6 h
same,DVT rate,"[2]; 30 mg (I) once daily for 7 to 9 days, 73 patients undergoing THR surgery",12.3%
same,Prevention of venous thromboembolism (VTE),"[2]; 7-9-day treatment, 2.5 to 30 mg bid, adults undergoing elective hip replacement, compared with enoxaparin",prevented venous thromboembolism (VTE)
same,"Primary efficacy, composite endpoint (DVT, PE, death) incidence rate",[2]; [3],22.2%
same,"Primary efficacy, composite endpoint, n of patients with event",[2]; [3],14
same,"Primary efficacy, composite endpoint (DVT, PE, death) incidence rate",[2]; [4],23.8%
same,"Primary efficacy, composite endpoint, n of patients with event",[2]; [4],15
same,"Primary efficacy, composite endpoint (DVT, PE, death) incidence rate",[2]; [5],20.0%
same,"Primary efficacy, composite endpoint, n of patients with event",[2]; [5],11
same,"Primary efficacy, composite endpoint (DVT, PE, death) incidence rate",[2]; [6],10.2%
same,"Primary efficacy, composite endpoint, n of patients with event",[2]; [6],6
same,"Primary efficacy, composite endpoint (DVT, PE, death) incidence rate",[2]; [7],17.4%
same,"Primary efficacy, composite endpoint, n of patients with event",[2]; [7],8
same,"Primary efficacy, composite endpoint (DVT, PE, death) incidence rate",[2]; [8],15.1%
same,"Primary efficacy, composite endpoint, n of patients with event",[2]; [8],11
